Data: patent US7037502B2, “Peptide with the amino acid sequence of KVLDGQDP having anti-inflammatory properties” (priority 2001, dated 2006)
“Also recorded” adds a separate entry of the source. Marks after values point to notes of the source that are not given here.

Experiments:
[1] = tested on: allergic conjunctivitis to ragweed (Ambrosia trifida); assay: Allergic conjunctivitis to ragweed in guinea pig: clinical scores (conjunctival edema and redness); type: in vivo, Hartley female guinea pig; conditions: for Statistical evaluation of clinical scores (Mann-Whitney test), P compared to Dexamethasone / Statistical evaluation of clinical scores (Mann-Whitney test), P compared to Livostine / Statistical evaluation of clinical scores (Mann-Whitney test), P compared to No treatment group: conjunctival edema and redness score 0-4+, 20 min after allergen challenge, 12 eyes per group, eye drops
Protocol: The peptides of the present invention were analyzed in experimental model of allergic conjunctivitis to ragweed (giant ragweed; Ambrosia trifida) in guinea pig. Hartley strain of guinea pig was selected according to previous reports of conjunctival anaphylaxis (Calonge M., et al., Acta Ophthalmol 68; 470–476, 1990) and females were chosen based on the sex dimorphism of ocular mucosal immunity with the protective role of male hormones (Saruya S., et al., Act Soc Ophthalmol Jap 72; 833–845, 1968). The conjunctival redness and edema are main signs of seasonal allergic conjunctivitis and eosionphil infiltration is the hallmark of the conjunctival histology in patients with allergic conjunctivitis (Abelson M B., et al., Arch Ophthalmol. 101; 555–556, 1983; Butrus S I., et al., Int. Ophthalmol. Clin. 28; 324–328, 1988) 86 Hartley female guinea pigs, 200–250 g were housed in the animal facilities of the Asan Institute for Life Sciences (Korea), given guinea pig chow and water ad libitum, and cared for in accordance with the Declaration of Helsinki and the National Institute of Health Guide to the Care and Use of the Laboratory Animals (Korea). […] On day 15, immunized guinea pigs were divided 14 groups, 6 for each group. 11 anti-inflammatory peptides including new recombinants, dexamethasone eye drop (Maxidex, 0.1% dexamethasone, Alcon) and anti-histamine eye drop (Livostin, levocabastine, Janssen) were used for 13 groups, and no treatment for one group. Normal controls were employed as 6 non-immunized and non-treated guinea pigs. […] All the procedures were followed experimental model of allergic conjunctivitis described by Merayo-Lloves et al (Experimental model of allergic conjunctivitis to ragweed in guinea pig. Curr. Eye Res. 14; 487–494, 1995). Anti-inflammatory peptides were resolved in sterile saline (100 μmol/40 μl concentration). All peptides and dexamethasone eye solutions were challenged 3 hour prior to the last pollen application on day 15, 10 minutes after pollen application, and 4 times thereafter at the 3 hour interval. Conjunctival edema and redness were judged in room light and under an operating microscope (Zeiss, Germany). The evaluation was performed in a masked fashion at 20 min after allergen challenge and each clinical sign was scored on a scale 0–4+ (0 absent, 1+ minimal, 2+ mild, 3+ moderate, 4+ severe), adapted for guinea pig from previous report (Merayo-Lloves et al: Experimental model of allergic conjunctivitis to ragweed in guinea pig. Curr. Eye Res. 14; 487–494, 1995). Clinical scores of each group (12 eyes in each group) were analyzed.

[2] = tested on: eosinophil infiltration of conjunctiva; assay: Allergic conjunctivitis to ragweed in guinea pig: histology, eosinophil count in conjunctiva; type: in vivo, Hartley female guinea pig; conditions: for Anti-inflammatory activity, overall conclusion in words: allergic conjunctivitis model in guinea pig, summary of Example 2; for Statistical evaluation of eosinophil count (Mann-Whitney test), P compared to Dexamethasone / Statistical evaluation of eosinophil count (Mann-Whitney test), P compared to Livostine / Statistical evaluation of eosinophil count (Mann-Whitney test), P compared to No treatment group: eosinophils in three fields of conjunctiva (×400), 12 eyes per group, eye drops
Protocol: The peptides of the present invention were analyzed in experimental model of allergic conjunctivitis to ragweed (giant ragweed; Ambrosia trifida) in guinea pig. Hartley strain of guinea pig was selected according to previous reports of conjunctival anaphylaxis (Calonge M., et al., Acta Ophthalmol 68; 470–476, 1990) and females were chosen based on the sex dimorphism of ocular mucosal immunity with the protective role of male hormones (Saruya S., et al., Act Soc Ophthalmol Jap 72; 833–845, 1968). The conjunctival redness and edema are main signs of seasonal allergic conjunctivitis and eosionphil infiltration is the hallmark of the conjunctival histology in patients with allergic conjunctivitis (Abelson M B., et al., Arch Ophthalmol. 101; 555–556, 1983; Butrus S I., et al., Int. Ophthalmol. Clin. 28; 324–328, 1988)
86 Hartley female guinea pigs, 200–250 g were housed in the animal facilities of the Asan Institute for Life Sciences (Korea), given guinea pig chow and water ad libitum, and cared for in accordance with the Declaration of Helsinki and the National Institute of Health Guide to the Care and Use of the Laboratory Animals (Korea).
On day 15, immunized guinea pigs were divided 14 groups, 6 for each group. 11 anti-inflammatory peptides including new recombinants, dexamethasone eye drop (Maxidex, 0.1% dexamethasone, Alcon) and anti-histamine eye drop (Livostin, levocabastine, Janssen) were used for 13 groups, and no treatment for one group. Normal controls were employed as 6 non-immunized and non-treated guinea pigs. […] All the procedures were followed experimental model of allergic conjunctivitis described by Merayo-Lloves et al (Experimental model of allergic conjunctivitis to ragweed in guinea pig. Curr. Eye Res. 14; 487–494, 1995).
Anti-inflammatory peptides were resolved in sterile saline (100 μmol/40 μl concentration). All peptides and dexamethasone eye solutions were challenged 3 hour prior to the last pollen application on day 15, 10 minutes after pollen application, and 4 times thereafter at the 3 hour interval.
The orbits were excentrated after the animals were killed with CO2 asphyxia, and specimens were prepared for light microscopic examination. Sectioned specimens were stained with hematoxylin-eosin.
Eosinophils in the standardized fields of conjunctival epithelium, the immediate subepithelial, and the stroma were counted in three non-consecutive fields (magnification ×400) for each treatment in each experiment (12 eyes in each group).

[3] = n=12, P<0.01, SD<10%, Mann-Whitney test, listed as SEQ ID NO:2

Sequence | Statistical evaluation of clinical scores (Mann-Whitney test), P compared to Dexamethasone [1] | Statistical evaluation of clinical scores (Mann-Whitney test), P compared to Livostine [1] | Statistical evaluation of clinical scores (Mann-Whitney test), P compared to No treatment group [1] | Clinical signs (conjunctival redness and edema scores), result in words [1, 3] | Anti-inflammatory activity, overall conclusion in words ([2]; listed as SEQ ID NO:2) | Statistical evaluation of eosinophil count (Mann-Whitney test), P compared to Dexamethasone [2] | Statistical evaluation of eosinophil count (Mann-Whitney test), P compared to Livostine [2] | Statistical evaluation of eosinophil count (Mann-Whitney test), P compared to No treatment group [2] | Histological signs (eosinophil infiltration), result in words [2, 3] | Anti-inflammatory activity, overall conclusion in words [2]
KVLDGQDP [Peptide R2, synthetic peptide of the invention] | 0.796 | 0.515 | 0.000 | statistically significant difference from other groups; also recorded: most effective | excellent anti-inflammatory activity in comparison with other known peptide sequences; also recorded: much higher activity than the steroidal anti-inflammatory dexamethasone | 0.001* | 0.002* | 0.000 | statistically significant difference from other groups; also recorded: the most effective | 
KVLDPVKG [Peptide R1, synthetic peptide of the invention] | 0.000 | 0.000 | 0.965 |  |  | 0.001 | 0.002 | 0.002 |  | excellent anti-inflammatory activity in comparison with other known peptide sequences
